In US9381254B2, “Methods for preparing polymeric reagents” (Nektar Therapeutics, priority 2005, dated 2016):
Ends that are not written are not given here.

Experiments:
diabetic db/db mice = test: In-vivo study in mice of blood-glucose lowering effects of GLP-1 polymer conjugates; parameters: species or system mouse; conditions: for blood glucose-lowering effect: single subcutaneous dose (GLP-1 60, 120 μg; conjugates 420 μg), FIG. 14; for PD effect when compared to the 20 kiloDalton PEG conjugate: single subcutaneous dose 420 μg
Experimental: Male diabetic mice (BKS.Cg-+Lepr db/+Lepr db/01aHsd) were purchased from Harlan Laboratories, Ltd. (Jerusalem, Israel). The 8-9 week old animals (30-40 gm) were placed in mouse cages (two animals per cage), and allowed at least 48 hours of acclimatization before the start of the study.
Each compound was accurately weighed into a glass vial and dissolved in normal saline in order to prepare a concentration that would accommodate for the dose (based on GLP-1 equivalents) and the injection volume of 100 μL.
The study was divided into two phases: a feasibility phase and an evaluation phase.
In the feasibility phase, the feasibility of using diabetic db/db mice to test the effectiveness of GLP-1 was first evaluated. In carrying out the feasibility phase, several groups of mice were used wherein four mice were used in each group. Data on the baseline glucose levels were gathered for each mouse for 2-3 days prior to drug dosing. This was performed to identify any outliers in the group of animals. On the day of treatment (Day 0) each animal was weighed. A time 0 day blood sample (5 to 10 μL) was collected from the tail vein. The glucose level (mg/dL) was measured using a glucose analyzer. Each animal was then dosed subcutaneously (SC) below the skin on the back. […] The animals were then allowed to return into their cages. Blood samples of 5 to 10 μL (<0.5% of 2 mL blood volume for a 35 g mouse) were removed through a needle prick/capillary tube at the following time points: −3, −2, −1, 0, 0.04, 0.16, 0.33, 1.0, 1.16 days. Each collected blood sample was tested for its glucose level. At the end of the study, the animals were humanely euthanized by carbon-dioxide asphyxiation.
In the evaluation phase, the results from the feasibility phase were used to select the appropriate doses required to attain a sustained delivery of GLP-1 for a 3-5 day effect. In carrying out the evaluation phase, eight mice were used in each group. Data on the baseline glucose levels were gathered for each mouse three days prior to drug dosing. On the day of treatment (Day 0) each animal was weighed. A time 0 day blood sample (5 to 10 μL) was collected from the tail vein. The glucose level (mg/dL) was measured using a glucose analyzer. Each animal was then dosed subcutaneously (SC) below the skin on the back. […] The animals were then allowed to return into their cages. Blood samples of 5 to 10 μL (<0.5% of 2 mL blood volume for a 35 g mouse) were removed through a needle prick/capillary tube at the following time points: −3, −2, −1, 0, 0.04, 0.16, 0.33, 0.5, 1, 2, 3, 6 days. Each collected blood sample was tested for its glucose level. Food was withdrawn from the animals for the first four hours after dosing. At the end of the study, the animals were humanely euthanized by carbon-dioxide asphyxiation.

[1] = Cleavable nature of GLP-1 conjugate in aqueous media (50 mM Tris, pH 10, overnight at 50° C.), SDS-PAGE / reverse phase HPLC; format: physicochemical; conditions: 50 mM Tris solution
Experimental: The column was a 100 mm×2.1 mm ID Betasil C18 column with 5 μm particles, available from Thermo Electron Corp. Reverse phase HPLC used a mobile phase of 0.1% TFA in deionized water (solution C) and 0.1% TFA in acetonitrile (solution D) conducted at 37° C. The gradient used for reverse phase HPLC was as follows: for time 0.00 to 20.00 minutes, 35% of the mobile phase contained solution D; for time 20.00 to 21.00 minutes, 55% of the mobile phase contained solution D; for time 21.00 to 23.00 minutes, 80% of the mobile phase contained solution D; for time 23.00 to 24.00 minutes, 80% of the mobile phase contained solution D; for time 24.00 to 25.00 minutes, 35% of the mobile phase contained solution D; for time 25.00 and above, 35% of mobile phase contained solution D.

Substance | blood glucose-lowering effect (diabetic db/db mice) | PD effect when compared to the 20 kiloDalton PEG conjugate (diabetic db/db mice) | release of GLP-1 from the conjugate [1] | clearance from the mouse (from pharmacodynamic measurements) (diabetic db/db mice; subcutaneous)
G2PEG2Fmoc20K-Lys-GLP-1: G2PEG2Fmoc20k-NHS covalently and releasably attached to a lysine position of GLP-1 (HAEGTFTSDVSSYLEGQAAKEFIAWLVKGR; ends and bridges not checked; also: releasable G2PEG2Fmoc20K PEG on a lysine; UniProt P01275 98-127, looked up) | confirmed | – | – | –
G2PEG2Fmoc40K-Lys-GLP-1: G2PEG2Fmoc40k-NHS covalently and releasably attached to a lysine position of GLP-1 (HAEGTFTSDVSSYLEGQAAKEFIAWLVKGR; ends and bridges not checked; also: releasable G2PEG2Fmoc40K PEG on a lysine; UniProt P01275 98-127, looked up) | confirmed | small but extended PD effect | – | –
G2PEG2Fmoc40k-N^ter-GLP-1 | – | small but extended PD effect | complete release | –
Glucagon-like Peptide I (7-36, “GLP-1”) [reference compound] | confirmed | – | – | cleared rapidly
